Assay results: US9750259B2, “Pyroxasulfone and glutamine synthesis inhibitor compositions for weed control” (Valent U.S.A., priority 2014, dated 2017)

Experiments:
Palmer Amaranth [1] = experiment: Field test in Roundup Ready soybeans: control (kill) of emerged Palmer Amaranth, reading 14 DAT; type: in vivo, Amaranthus palmeri; conditions: post emergence, all treatments with MSO 1% v/v, glufosinate 593, pyroxasulfone 90, flumiclorac-pentyl 73 g active/ha, % printed in b55 only
Procedure: (§1) The following field test was conducted. Roundup Ready soybeans (Glycine max) were used in the test as the crop plant. All of the treatments contained MSO concentrate oil at 1% v/v.
(§2) When the test began, the test plot had weeds that were less than […] tall. Treatments were administered at the concentrations as follows. Glufosinate-ammonium was administered at 593 grams/hectare. Pyroxasulfone was administered at 90 grams/hectare throughout the experiment.
(§3) On 14 DAT, readings were taken to determine the survival of Palmer Amaranth. On 21 DAT, readings were taken to determine the residual control of Palmer Amaranth and Horseweed. Survival ratings were taken by counting the number of alive and dead plants at the time of the reading. All data was analyzed using Bartlett's test and with p value of […] for determining significance of the results. The Effect of Glufosinate and Pyroxasulfone on Weeds.”

Horseweed = experiment: Field test in Roundup Ready soybeans: control of Horseweed, reading 21 DAT; type: in vivo, Conyza Canadensis; conditions: all treatments with MSO 1% v/v, glufosinate 593, pyroxasulfone 90, flumiclorac-pentyl 73 g active/ha, % printed in b55 only
Procedure: as §1, §2, §3

Palmer Amaranth [2] = experiment: Field test in Roundup Ready soybeans: residual control of Palmer Amaranth, reading 21 DAT; type: in vivo, Amaranthus palmeri; conditions: all treatments with MSO 1% v/v, glufosinate 593, pyroxasulfone 90, flumiclorac-pentyl 73 g active/ha, % printed in b55 only
Procedure: as §1, §2, §3

| Compound | Palmer amaranth (<2″ tall) control / kill rate (Palmer Amaranth [1]) [%] | Horseweed (bolted) control / kill rate (Horseweed) [%] | Residual control of Palmer amaranth (Palmer Amaranth [2]) [%] |
| --- | --- | --- | --- |
| CP(=O)(O)CCC(N)C(=O)O (racemic) [glufosinate, DL-4-[hydroxy](methyl)phosphinoyl]-DL-homoalaninate] | 90 | 75 | 93 |
| Cn1nc(C(F)(F)F)c(CS(=O)(=O)C2=NOC(C)(C)C2)c1OC(F)F [pyroxasulfone, 3-[[[5-(difluoromethoxy)-1-methyl-3 (trifluoromethyl)-1H-pyrazol-4-yl]methyl]sulfonyl]-4,5-dihydro-5,5-dimethylisoxazole] | 5 | – | 99 |
